Source: patent US10301270B2, “Compositions and methods for quadricyclane modification of biomolecules” (The Regents of the University of California, priority 2011, dated 2019)
Entries after “also recorded” stand apart in the source; their conditions may differ. Like-named read-outs stand apart in the source and are kept apart here.

Experiments:
Format in all cases: physicochemical
[1] = Photo-lability of complex 3 in ambient light (NMR, UV/Vis/NIR); conditions: CDCl3 solution in an NMR tube
Description: Complex 3 (2.2 mg) was dissolved in CDCl3 (˜0.75 mL) and placed in an NMR tube on the bench continually exposed to ambient light. NMR spectra were periodically obtained. The asterisks indicate the chemical shifts for 7-acetoxy norbornadiene (4). At the 36 h time point, there is a 1:1.1 ratio of 3:4 as judged by integration of the olefin peaks.
Using an NMR assay degradation of 3 over the first few hours is not evident. However, using UV/Vis/NIR spectroscopy, which has greater sensitivity than NMR, the formation of 2 from 3 is evident at early timepoints. A solution of 3 was prepared in CH3CN and left in ambient light. A UV/Vis/NIR spectrum was obtained every 15 min. The NIR absorption band at 855 nm characteristic of 2 is growing in, while the small hump centered at ˜400 nm characteristic of […] is decreasing. The absorption band at 350 nm is also increasing in intensity.

[2] = Prevention of photo-degradation of complex 3 by diethyldithiocarbamate (UV/Vis/NIR); conditions: 200 μM 3, 1.25 mM 5, 3:1 CH3CN/H2O, 20 h ambient light
Description: A solution containing 200 μM 3 and 0 (red) or 1.25 (green) mM 5 in 3:1 CH3CN/H2O was prepared and left in ambient light continually. A. UV/Vis/NIR spectra of the described solutions taken before being exposed to light. B. UV/Vis/NIR spectra of the described solutions taken after 20 h of exposure to light. The red line contains little absorbance due to the low solubility of 2 in acetonitrile. If 2 is reduced to the anionic state by cysteine (1.25 mM, blue line) solubility in acetonitrile is improved and evidence of photodegradation can be seen. The diethyldithiocarbamate treated sample remains unaltered after exposure to light indicating no photodegradation occurred.

[3] = Solubility and reactivity of bis(dithiobenzil)nickel(II) 2
[4] = Stability of quadricyclane 1 to cysteine and other biological nucleophiles, BSA and cell culture media
Description: 7-acetoxy quadricyclane (1, 2 mg) was dissolved in 0.4 mL of CD3CN. To this solution, 0.4 mL of deuterated PBS and 3 mg of cysteine were added. The NMR spectrum above was taken 2.5 months after the described solution was prepared.

[5] = Stability of 7-acetoxy quadricyclane 1 in PBS (NMR); conditions: room temperature, more than 2 months (NMR taken 2.5 months after preparation, CD3CN/deuterated PBS)
Description: 7-acetoxy quadricyclane (1, 2 mg) was dissolved in 0.4 mL of CD3CN. To this solution, 0.4 mL of deuterated PBS was added. The NMR spectrum above was taken 2.5 months after the described solution was prepared.

CC(=O)OC1C2C=CC1C1C2[S]2=[Ni]3(=[S]1C(c1ccccc1)=C(c1ccccc1)[S]3)[S]C(c1ccccc1)=C2c1ccccc1 (stereo not drawn) [Complex 3]
half-life at 2.9 mg/mL ([1]; NMR, read-out: Calculated half-life of photo-degradation based on all integration data (converted)): 2090 min
half-life at 2.9 mg/mL ([1]; read-out: Half-life of the light-induced reversion (converted)): ~2100 min

CCN(CC)C(=S)S [Compound 5, diethyldithiocarbamate]
Effect on photo-degradation of complex 3 [2]: prevented

S=C(C(=S)c1ccccc1)c1ccccc1.S=C(C(=S)c1ccccc1)c1ccccc1.[Ni] [Compound 2, Bis(dithiobenzil)nickel(II)]
Solubility in acetonitrile ([3]; acetonitrile): low
Reactivity with a variety of nucleophiles ([3]; in dichloromethane): unreactive
Solubility in polar solvents ([3]; polar solvents): limited

CC(=O)OC1C2C3C2C2C1C32 (stereo not drawn) [Compound 1, 7-acetoxy Quadricyclane]
Stability in the presence of bovine serum albumin (BSA) and cell culture media ([4]; conditions emulating metabolic labeling experiments): stable
Reactivity with sugars, oxidants and free amino acids, most notably cysteine ([4]; cysteine: CD3CN/deuterated PBS, NMR after 2.5 months): stable; also recorded: unreactive
Stability in phosphate buffered saline (PBS, pH 7.4) [5]: stable; also recorded: no degradation observed
